Test results: article doi:10.1101/625897v2 (biorxiv, 2019)

Columns and labels:
Experiment in all cases: inside-out patch clamp, Cl- current stimulation
ANO1 (TMEM16A; mTMEM16A) [1] = biological target: T1, ANO1 (TMEM16A; mTMEM16A) (Mus musculus, UniProt Q8BHY3); assay type: biochemical; conditions: +100 mV, 270 nM Ca2+
T1 sequence (Q8BHY3 1-960): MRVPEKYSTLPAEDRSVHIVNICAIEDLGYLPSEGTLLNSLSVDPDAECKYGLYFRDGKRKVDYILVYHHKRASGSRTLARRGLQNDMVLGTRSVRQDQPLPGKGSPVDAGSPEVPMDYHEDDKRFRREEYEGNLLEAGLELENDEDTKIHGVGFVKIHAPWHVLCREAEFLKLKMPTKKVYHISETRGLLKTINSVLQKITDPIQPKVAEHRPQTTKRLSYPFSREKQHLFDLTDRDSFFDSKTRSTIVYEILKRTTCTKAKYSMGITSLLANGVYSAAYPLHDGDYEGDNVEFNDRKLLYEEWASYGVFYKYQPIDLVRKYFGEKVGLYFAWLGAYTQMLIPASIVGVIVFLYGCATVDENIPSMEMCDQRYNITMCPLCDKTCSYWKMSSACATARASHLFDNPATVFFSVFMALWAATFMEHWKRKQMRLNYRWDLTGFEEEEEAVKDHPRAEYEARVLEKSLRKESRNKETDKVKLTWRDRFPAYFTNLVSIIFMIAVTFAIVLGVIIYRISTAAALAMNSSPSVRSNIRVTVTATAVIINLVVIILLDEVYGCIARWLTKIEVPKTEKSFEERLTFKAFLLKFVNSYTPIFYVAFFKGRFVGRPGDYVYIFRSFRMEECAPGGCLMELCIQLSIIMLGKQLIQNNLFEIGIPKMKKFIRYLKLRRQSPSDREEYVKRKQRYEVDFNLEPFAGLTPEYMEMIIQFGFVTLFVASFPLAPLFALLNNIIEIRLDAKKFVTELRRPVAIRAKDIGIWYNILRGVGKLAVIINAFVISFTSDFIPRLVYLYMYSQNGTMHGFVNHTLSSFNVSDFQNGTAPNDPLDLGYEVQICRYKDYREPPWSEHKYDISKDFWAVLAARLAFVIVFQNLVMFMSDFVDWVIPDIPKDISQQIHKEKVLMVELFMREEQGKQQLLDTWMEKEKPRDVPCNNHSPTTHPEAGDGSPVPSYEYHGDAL

ANO1 (TMEM16A; mTMEM16A) [2] = biological target: T1, ANO1 (TMEM16A; mTMEM16A); assay type: cell-based
ANO1 (TMEM16A; mTMEM16A) [3] = biological target: T1, ANO1 (TMEM16A; mTMEM16A); assay type: biochemical; conditions: +100 mV, 270 nM Ca2+; wild-type reference of the mutant set

Row | Structure (SMILES) | % current increase at 10 μM (ANO1 (TMEM16A; mTMEM16A) [1]) [%] | EC50 (ANO1 (TMEM16A; mTMEM16A) [2]) [µM] | ΔIPIP2 (% current increase) at 10 μM (ANO1 (TMEM16A; mTMEM16A) [3]) [%]
1 | CCCCCCCC(=O)OC[C@H](COP(=O)(O)O[C@H]1[C@H](O)[C@@H](OP(=O)(O)O)[C@H](OP(=O)(O)O)[C@@H](OP(=O)(O)O)[C@H]1O)OC(=O)CCCCCCC [diC8-PI(3,4,5)P3] | 31 ± 12 | – | –
2 | CCCCCCCC(=O)OC[C@H](COP(=O)(O)O[C@@H]1[C@H](O)[C@H](O)[C@@H](OP(=O)(O)O)[C@H](OP(=O)(O)O)[C@H]1O)OC(=O)CCCCCCC [diC8-PI(4,5)P2] | – | 1.24 | 89.9 ± 16.8
